Read-outs that look alike come from different tables or passages of the source.
How the values were obtained:
[1] = molecular target: T1, AKT1 (Homo sapiens, UniProt P31749); assay: AKT1 In Vitro Enzyme Assay (Transcreener Kinase ADP-FP); format: biochemical; conditions: 20 micromolar ATP; read-out: IC50 against AKT1
T1 construct: His tag; host or cells: insect cells
Experimental: Compound IC50 values against AKT1 target are determined using the AKT1 Transcreener™ Kinase ADP-FP Assay. This assay assesses the activity of AKT1 in the presence of compound inhibitors by measuring the concentration of ADP formed in a kinase reaction. The kinase reactions (25 μL reaction volumes) are performed in 96-well half-area black polystyrene plates. ATP is added to start the reactions. Final reaction conditions are 56 millimolar HEPES pH 7.4, 0.008% TRITON™ X-100, 5 millimolar magnesium chloride, 30 micromolar Crosstide peptide, 20 micromolar ATP, hAKT1 Human Recombiant, V-AKT Murine Thymoma Viral Oncogene Homolog 1, histidine-tagged, expressed in insect cells, 4% DMSO and serial dilutions of compound (diluted 1:3 from 20,000 to 1 nanomolar). […] Quenched reactions are incubated for 4-16 hours, and then read in a Tecan Ultra Evolution plate reader in Fluorescence Polarization mode using polarizing filters of Ex612nm and Em633nm wavelength. […] The IC50 value for each compound is derived using percent inhibition data which is calculated using the micromolar ADP reaction data relative to on-plate controls (active enzyme versus 100 millimolar inhibited enzyme controls). […]

[2] = test system: phosphorylated S6 ribosomal protein serine 240/244 (pS6); assay: AlphaScreen SureFire detection of pS6 in U87MG cells; format: cell-based; conditions: Homo sapiens, U-87 MG, 1 hour
Experimental: The effect of compounds on the formation of endogenous phosphorylated S6 ribosomal protein serine 240/244 (pS6) and phosphorylated GSK3β serine 9 (pGSK3β) are measured using the AlphaScreen SureFire® for either pS6 (TGR Biosciences, TGRS6P2S10K) or pGSK3β(TGRGBS10K). This is a homogeneous assay format using immuno-sandwich capture of the phosphorylated analyte followed by detection using antibody-coated Alphascreen beads to generate an amplified signal.
U87MG cells are maintained in U87MG growth medium consisting of DMEM supplemented with 10% Fetal bovine serum (FBS), 1% Nonessential amino acids and 1% sodium pyruvate. For the assay, cells are harvested by standard procedures and then counted using Vi-Cell. Cells (50,000/well) are plated in 100 μL of U87MG growth medium into Costar #3596 96 well plates. […]
On the day of the assay, cells are treated with 20 μL/well compound diluted in media containing 6% DMSO. […] The plate is sealed with foil, incubated at RT for 4 hours with gentle shaking and then read on Perkin Elmer EnVision equipped with a TurboModule using standard AlphaScreen® settings (Ex680nm and Em520-620nm). The percent inhibition determined from controls on each plate and ten-point compound concentration data are then fit to a four-parameter logistic equation using ACTIVITYBASE 4.0 (Assay Guidance Manual Version 5.0, 2008, Eli Lilly and Company and NIH Chemical Genomics Center).

[3] = test system: Phosphorylation of GSK3β(S9); assay: p70 S6K/AKT In Vivo Target Inhibition, U87MG xenograft, pGSK3β; design: species or system athymic nude mice; conditions: Mus musculus, U-87 MG, IV Dose 12.5 mpk, U87MG tumors, read-out: p(S9)GSK 3β - % inhibition
Experimental: U87MG human glioblastoma cells (5×106) are subcutaneously implanted into the flank of athymic nude mice in 0.2 mL of matrigel. Two weeks post-implantation, mice are dosed orally or parenterally according to a time course, single dose/single time point, or dose response protocol for the determination of TMED50 (threshold minimum effective dose). Tumors are flash frozen at harvest and blood is collected for the determination of parent compound plasma exposure and the calculation of TMEC50 (threshold minimum effective concentration) in the case of dose response studies. Tumors or tissues are pulverized in liquid N2 and lysed in 400 μL of XY Lysis Buffer (10 μg/mL Leupeptin, 10 μg/mL Trypsin-Chymotrypsin Inhibitor, 10 μg/mL Tosyl phenyl-alanyl chloromethyl ketone, 10 μg/mL Aprotinin, 60 mM Beta-Glycerol Phosphate, 1% Triton X100, 25 mM Tris pH 7.5, 2.5 mM Pyrophosphate, 150 mM NaCl, 2 mM p-tosyl-L-arginine methyl ester, 15 mM para-nitrophenyl phosphate, 5 mM Benzamidine, 1 mM Na Vanadate, 10 mM NaF, 50 μg/mL phenyl-methane sulfonyl fluoride, 1 mM 1,4-Dithiothreitol (DTT), 15 mM EDTA pH 8.0, 5 mM EGTA pH 8.0, 1 μM Microcystin, 1 μM Okadaic Acid, and 1 Roche Complete protease inhibitor mini-tablet per 10 mL) using Lysing Matrix D tubes (MP Biomedicals, Solon, Ohio, cat#6913-500) and a BIO101 Thermo Savant Fast Prep FP12. Lysates are aliquoted and either assayed immediately or stored at −80° C. for later testing. In Vivo Target Inhibition of p70 S6K and AKT is measured utilizing Meso Scale Discovery (Gaithersburg, Md.) ELISA technology to assess effects on phosphorylation of the serine 240/244 site of the downstream effector S6RP. Phosphorylation of p70 S6K(T389), AKT(5473) and GSK3β(S9) is also assessed using this technology in a multiplex format. In summary, 20 μg of lysate is added to carbon electrode containing 96-well plates pre-spotted with the appropriate capture antibodies. The protein of interest is probed using a ruthenium labeled detection antibody. Upon the passage of current over the electrode in the presence of read buffer containing the co-reactant TPA, electro-chemiluminescence results in the generation of light which is quantified and recorded using the MSD Sector 6000 instrument. For each study, percent inhibitions are calculated relative to the vehicle control group and ANOVA analysis is performed using the JMP software package for the determination of statistical significance.

T1 sequence (P31749 whole entry): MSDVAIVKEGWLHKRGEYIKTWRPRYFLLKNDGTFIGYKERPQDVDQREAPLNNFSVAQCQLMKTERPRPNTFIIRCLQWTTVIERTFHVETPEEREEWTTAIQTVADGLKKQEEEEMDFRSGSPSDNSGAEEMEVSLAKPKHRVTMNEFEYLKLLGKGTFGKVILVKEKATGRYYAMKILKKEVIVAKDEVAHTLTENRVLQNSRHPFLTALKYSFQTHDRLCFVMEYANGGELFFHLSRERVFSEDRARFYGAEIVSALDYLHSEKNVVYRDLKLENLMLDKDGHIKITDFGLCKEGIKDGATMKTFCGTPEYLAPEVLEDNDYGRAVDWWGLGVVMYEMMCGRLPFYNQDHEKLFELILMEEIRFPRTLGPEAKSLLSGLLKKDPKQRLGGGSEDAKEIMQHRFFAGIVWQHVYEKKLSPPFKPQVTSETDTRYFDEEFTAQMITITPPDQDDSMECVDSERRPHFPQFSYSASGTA

- IC50 [1]: 6 nM
- IC50 [2]: 65 nM
SMILES: CN(C)CCn1cc(-c2ccc(F)c(C(F)(F)F)c2)nc1C1CCN(c2ncnc3c2C(C)(C)C(=O)N3)CC1 [Example 31]
- inhibition at 12.5 mg/kg ([3]; 1 hr post IV dose): 48.4%
- inhibition at 12.5 mg/kg ([3]; 2 hr post IV dose): 12.6%
- inhibition at 12.5 mg/kg ([3]; 4 hr post IV dose): 20.5%
- inhibition at 12.5 mg/kg ([3]; 6 hr post IV dose): 51.7%
- inhibition at 12.5 mg/kg ([3]; 8 hr post IV dose): 20.1%
- inhibition at 12.5 mg/kg ([3]; 24 hr post IV dose): 6%

Source: patent US8148387B2, “AKT and P70 S6 kinase inhibitors” (Eli Lilly and Company, priority 2008, dated 2012)
